Experiment [1] deals with Erysiphe [syn. Blumeria] graminis forma specialis. tritici. Nature of the experiment: Activity against mildew of wheat (protective spray, greenhouse). The class given is in vivo. Conditions: wheat seedlings Kanzler, 7 days. As to the method: (§1) Evaluation is carried out by determining the infected leaf areas as a percentage. These percentages are converted into efficacies. The efficacy (W) is calculated as follows using Abbot's formula: [formula] • α corresponds to the fungal infection of the treated plants as a % and • β corresponds to the fungal infection of the untreated (control) plants as a %
(§2) An efficacy of 0 means that the infection level of the treated plants corresponds to that of the untreated control plants; an efficacy of 100 means that the treated plants were not infected.
(§3) The expected efficacies of the mixtures of the active compounds were determined using Colby's formula [R. S. Colby, Weeds 15, 20-22 (1967)] and compared with the observed efficacies. Colby's formula: E=x+y−x·y/100 • E expected efficacy, expressed as a % of the untreated control, when using the mixture of the active compounds A and B at the concentrations a and b • x efficacy, expressed as a % of the untreated control, when using active compound A at a concentration of a • y efficacy, expressed as a % of the untreated control, when using active compound B at a concentration of b
Leaves of wheat seedlings of the cultivar “Kanzler”, grown in pots, were sprayed to runoff point with an aqueous preparation of active compound which had been prepared from a stock solution comprising 10% of active compound, 85% of cyclohexanone and 5% of emulsifier, and 24 hours after the spray coating had dried on the leaves were dusted with spores of mildew of wheat (Erysiphe [syn. Blumeria] graminis forma specialis. tritici). The test plants were then placed in a greenhouse at 20-24° C. and 60-90% relative atmospheric humidity. After 7 days, the extent of the mildew development was determined visually in % infection of the entire leaf area.
The visually determined values for the percentage of diseased leaf areas were converted into efficacies in % of the untreated control. An efficacy of 0 means the same disease level in the untreated control, an efficacy of 100 means a disease level of 0%. The expected efficacies for the combinations of active compounds were determined using Colby's formula (Colby, S. R. (Calculating synergistic and antagonistic responses of herbicide Combinations”, Weeds, 15, pp. 20-22, 1967) and compared with the observed efficacies.

The test system of the next experiment is Puccinia recondita. The experiment is described as follows: Curative activity against brown rust of wheat (greenhouse). Conditions: wheat seedlings Kanzler, 7 days. The class given is in vivo. As to the method:
The active compounds, separately or together, are formulated as a 10% emulsion in a mixture of 63% by weight of cyclohexanone and 27% by weight of emulsifier, and diluted with water to the desired concentration.
as §1, §2, §3
Leaves of wheat seedlings of the cultivar “Kanzler”, grown in pots, were dusted with spores of brown rust (Puccinia recondita). The pots were then placed in a chamber with high atmospheric humidity (90-95%), at 20-22° C., for 24 hours. During this time the spores germinated and the germinal tubes penetrated into the leaf tissue. The next day, the infected plants were sprayed to runoff point with an aqueous formulation of active compound prepared from a stock solution consisting of 10% of active compound, 85% of cyclohexanone and 5% of emulsifier. After the spray coating had dried on, the test plants were cultivated in a greenhouse at 20-22° C. and 65-70% relative atmospheric humidity for 7 days. Thereafter, the extent of the rust fungus development on the leaves was determined.
The visually determined values for the percentage of diseased leaf areas were converted into efficacies in % of the untreated control. An efficacy of 0 means the same disease level as in the untreated control, an efficacy of 100 means a disease level of 0%. The expected efficacies for the combinations of active compounds were determined using Colby's formula (Colby. S. R. (Calculating synergistic and antagonistic responses of herbicide Combinations”, Weeds, 15, pp. 20-22, 1967) and compared with the observed efficacies.

The structures appear in SMILES notation.

Regarding `CCCCC(C#N)(Cn1cncn1)c1ccc(Cl)cc1` (centres unmarked) [myclobutanil], the “Efficacy in % of the untreated control” value (in experiment [1] (0.015 ppm in the spray liquor); in experiment [1] (0.06 ppm in the spray liquor); in experiment [1] (0.25 ppm in the spray liquor); in the experiment with Puccinia recondita (0.06 ppm in the spray liquor); in the experiment on Puccinia recondita (0.25 ppm in the spray liquor); with Puccinia recondita (1 ppm in the spray liquor)) was 0% each time.

Consider `Fc1ccc(C2(Cn3cncn3)OC2c2ccccc2Cl)cc1` (centres unmarked) [epoxiconazole], for which the “Efficacy in % of the untreated control” value is 0% in experiment [1] (0.015 ppm in the spray liquor); 0% in experiment [1] (0.06 ppm in the spray liquor); 0% in experiment [1] (0.125 ppm in the spray liquor); 29% in experiment [1] (0.25 ppm in the spray liquor); 59% in experiment [1] (1 ppm in the spray liquor); 0% in the experiment with Puccinia recondita (0.015 ppm in the spray liquor). Further, the “Efficacy in % of the untreated control” value was 11% with Puccinia recondita (0.06 ppm in the spray liquor) and 56% in the experiment with Puccinia recondita (0.25 ppm in the spray liquor).

As for `CC1(C)CCC(Cc2ccc(Cl)cc2)C1(O)Cn1cncn1` (centres unmarked) [metconazole], the “Efficacy in % of the untreated control” value in experiment [1] (0.015 ppm in the spray liquor) was 0%; in experiment [1] (0.06 ppm in the spray liquor), 0%; in experiment [1] (0.25 ppm in the spray liquor), 0%; in the experiment on Puccinia recondita (0.015 ppm in the spray liquor), 0%; in the experiment with Puccinia recondita (0.06 ppm in the spray liquor), 0%; in the experiment on Puccinia recondita (0.25 ppm in the spray liquor) it was 56%.
